Experimental data taken from patent US8796246B2, “9, 10-secopregnane derivative and pharmaceutical” (Nippon Shinyaku Co., Ltd., priority 2006, dated 2014).

Key:
[1] = tested on: human acute myelogenous leukemia cell line HL-60; assay: Ability to induce differentiation of HL-60 cells (oxygen radical production after phorbol ester, WST-1); format: cell-based; details: 72 hours incubation, then WST-1 and phorbol 12,13-didecanoate for 4 hours, absorbance at 450 nm
Text: It is known that the human acute myelogenous leukemia cell line HL-60is differentiated into neutrophil-like cells by active vitamin D or the like. Thus, the cells after the differentiation begin to express a surface marker such as CD11and CD32and, at the same time, they produce an oxygen radical by stimulation with a phorbol ester or the like. In this test, the above-mentioned property was utilized. As an index of the ability to induce differentiation of the HL-60cells, the amount of the oxygen radical produced by stimulation with a phorbol ester was measured, and the compounds of the invention mentioned in Examples were compared with maxacalcitol with respect to the vitamin D3activity thereof. In use of commercial reagents and kits, if any, the indications attached thereto were referred to.
HL-60cells (supplied from ATCC) were seeded on a 96-well plate at 5×10^3cells/100μL/well and a test compound in two-fold dilution series from 10^−7M was added to the second to the twelfth rows (maximum concentration: the second row). The first row was used for blank. After incubation for 72 hours under a moisturized condition in the presence of 5% CO2 at 37° C. using a CO2 incubator, 10 μL of PBS containing 50 mM WST-1 (manufactured by Takara Bio) and 10 μM phorbol 12,13-didecanoate (manufactured by SIGMA) were added to each well followed by further incubation for 4 hours. Absorbance (reference wavelength: […]) at […] of the WST-1 formazane dye generated by conversion from WST-1 by oxygen radical produced from the differentiated HL-60 cells was measured by a Benchmark microplate reader (manufactured by BioRad). An absorbance meter control software MPM3 (manufactured by BioRad) was used and, from a concentration-absorbance curve, the 50%-maximal effective concentration (hereinafter, referred to as “EC50”) of each was determined by a logistic curve regression.

[2] = Action to increase the urinary excretion of calcium (1), percutaneous administration; format: in vivo, SD male rats; details: percutaneous 10 μg/200 μL/kg/day once a day for 4 days; for Calcium in Urine within 24 hours: accumulated excretion 0 to 24 hours; for Calcium in Urine within 48 hours: accumulated excretion 0 to 48 hours; for Calcium in Urine within 72 hours: accumulated excretion 0 to 72 hours; for Calcium in Urine within 96 hours: accumulated excretion 0 to 96 hours
Experimental: The compound of the invention mentioned in Example 1, 36, 43, 47, 48, 55 or 70 or maxacalcitol in ethanol containing 0.5% DMSO was repeatedly subjected to a percutaneous administration (10 μg/200 μL/kg/day) once a day for 4 days onto the back of SD male rats (7 weeks of age). Ethanol containing 0.5% DMSO was administered to a control group. The calcium concentration in urine collected every 24 hours was measured and multiplied by the amount of urine to calculate the urinary excretion of calcium. The calcium excretion in urine shown in Table 3 indicates the accumulated calcium excretion from 0 to 24 hours, from 0 to 48 hours, from 0 to 72 hours, and from 0 to 96 hours.

[3] = Metabolic rate in human liver microsome; format: in vitro ADME; details: pooled human liver microsome 1 mg/mL protein, NADPH-regenerating system, 37° C., 2-60 minutes, HPLC
Experimental: The compounds of the invention mentioned in Examples and maxacalcitol were compared with each other with respect to the metabolic rate in human liver microsome.
As to the pooled human liver microsome (HHM-0323), those manufactured by Tissue Transformation Technologies were used. A 0.25 M potassium phosphate buffer (pH 7.4) (200 μL), 5 μL of a 250 μM solution of each compound to be tested in DMSO, 50 μL of an NADPH-regenerating system (where 20 mg of β-NADP^+, 70 mg of glucose-6-phosphate, 40 units of glucose-6-phosphate dehydrogenase and 20 mg of magnesium chloride were dissolved in 1 mL of distilled water) and 220 μL of distilled water were added to a microtube and the mixture was subjected to a preincubation for 5 minutes at 37° C. Reaction was started by an addition of 25 μL of human liver microsome (final concentration of protein: 1 mg/mL). Incubation was performed for 2, 10, 30 or 60 minutes and the reaction was stopped by an addition of 500 μL of acetonitrile. After centrifugation at 13,000 rpm for 5 minutes, each test compound in the supernatant (25 μL) was measured by HPLC under the following conditions.
Inertsil ODS-3 (4.6×150 mm; GL Science) was used as a column. With regard to the mobile phase, a solution A (acetonitrile/0.1% aqueous solution of ammonium acetate=10/90) and a solution B (acetonitrile/0.1% aqueous solution of ammonium acetate=90/10) were used under the linear gradient conditions mentioned in Tables 5 to 7. The column temperature, the flow rate and the wavelength for detection were set at 40° C., 1.0 mL/min. and UV 250 or 270 nm, respectively.
The compound mentioned in Example 38 was analyzed under the condition shown in Table 6; the compounds mentioned in Examples 55, 56, 68, 69, 72 and 73 were under the condition shown in Table 7; and the other compounds were under the condition shown in Table 5.
The compounds described in Examples 40, 43 to 48, 50, 55, 56, 58, 60, 61, 63 and 65 to 73 were analyzed under the condition of UV 250 nm; and the other compounds were under the condition of UV 270 nm.
From the HPLC test results as above, the metabolic rate of the test compound was calculated.

## C=C1/C(=C\C=C2/CCC[C@]3(C)C([C@H](C)OC(=O)CCC(C)(O)C(F)(F)F)=CC[C@@H]23)C[C@@H](O)C[C@@H]1O (single isomer, unassigned) [Compound of Example 70, (1S,3R,20S)-20-[(4R) or (4S)-5,5,5-trifluoro-4-hydroxy-4-methylpentanoyloxy]-9,10-secopregna-5Z,7E,10(19),16-tetraene-1,3-diol]
[1]
  EC50: 0.13 nM
[2]
  Calcium in Urine within 24 hours: 1.4 mg
  Calcium in Urine within 48 hours: 1.9 mg
  Calcium in Urine within 72 hours: 2.7 mg
  Calcium in Urine within 96 hours: 3.7 mg
[3]
  Metabolic Rate: 60 pmol/min/mg

## CC(OC(=O)CCC(C)(O)C(F)(F)F)C1CCC2C(=CC=C3CC(O)CC(O)C3)CCCC21C [Compound of Example 43, (1R,3R,20S)-19-nor-20-(5,5,5-trifluoro-4-hydroxy-4-methylpentanoyloxy)-9,10-secopregna-5Z,7E-diene-1,3-diol]
[1]
  EC50: 0.45 nM
[2]
  Calcium in Urine within 24 hours: 1.2 mg
  Calcium in Urine within 48 hours: 1.9 mg
  Calcium in Urine within 72 hours: 3.3 mg
  Calcium in Urine within 96 hours: 4.6 mg
[3]
  Metabolic Rate: 74 pmol/min/mg

## C=C1C(O)CC(=CC=C2CCCC3(C)C2CCC3C(C)OC(=O)CCC(C)(O)C(F)(F)F)CC1O [Compound of Example 44, (1R,3R,20S)-2-methylene-19-nor-20-(5,5,5-trifluoro-4-hydroxy-4-methylpentanoyloxy)-9,10-secopregna-5Z,7E-diene-1,3-diol]
[1]
  EC50: 0.25 nM
[3]
  Metabolic Rate: 95 pmol/min/mg

## C=C1C(O)CC(=CC=C2CCCC3(C)C2CCC3C(C)OC(=O)C=CC(O)(CC)CC)CC1O [Compound of Example 45, (1R,3R,20S)-2-methylene-19-nor-20-[(2E)-4-ethyl-4-hydroxyhex-2-enoyloxy]-9,10-secopregna-5Z,7E-diene-1,3-diol]
[1]
  EC50: 0.31 nM
[3]
  Metabolic Rate: 40 pmol/min/mg

## CC(OC(=O)CCC(C)(C)O)C1=CCC2C(=CC=C3CC(O)CC(O)C3)CCCC12C [Compound of Example 46, (1R,3R,20S)-19-nor-20-(4-hydroxy-4-methylpentanoyloxy)-9,10-secopregna-5Z,7E,16-triene-1,3-diol]
[1]
  EC50: 1.4 nM
[3]
  Metabolic Rate: 45 pmol/min/mg

## CC(OC(=O)CCC(C)(C)O)C1CCC2C(=CC=C3CC(O)C(C)C(O)C3)CCCC21C [Compound of Example 50, (1R,2α,3R,20S)-2-methyl-19-nor-20-(4-hydroxy-4-methylpentanoyloxy)-9,10-secopregna-5Z,7E-diene-1,3-diol]
[1]
  EC50: 0.043 nM
[3]
  Metabolic Rate: 45 pmol/min/mg

## C=C1C(O)CC(=CC=C2CCCC3(C)C(C(C)OC(=O)CCC(C)(O)C(F)(F)F)=CCC23)CC1O [Compound of Example 56, (1R,3R,20S)-19-nor-2-methylene-20-[(4R)-5,5,5-trifluoro-4-hydroxy-4-methylpentanoyloxy]-9,10-secopregna-5Z,7E,16-triene-1,3-diol]
[1]
  EC50: 0.47 nM
[3]
  Metabolic Rate: 102 pmol/min/mg

## CC1[C@H](O)CC(=C/C=C2\CCC[C@]3(C)[C@@H]([C@H](C)OC(=O)CCCC(C)(C)O)CC[C@@H]23)C[C@H]1O (stereo partly drawn) [Compound of Example 58, (1R,2α,3R,20S)-2-methyl-19-nor-20-(5-hydroxy-5-methylhexanoyloxy)-9,10-secopregna-5Z,7E-diene-1,3-diol]
[1]
  EC50: 0.53 nM
[3]
  Metabolic Rate: 29 pmol/min/mg

## CC(OC(=O)CCC(C)(O)C(F)(F)F)C1CCC2C(=CC=C3CC(O)C(C)C(O)C3)CCCC21C [Compound of Example 60, (1R,2α,3R,20S)-2-methyl-19-nor-20-(5,5,5-trifluoro-4-hydroxy-4-methylpentanoyloxy)-9,10-secopregna-5Z,7E-diene-1,3-diol]
[1]
  EC50: 0.053 nM
[3]
  Metabolic Rate: 78 pmol/min/mg

## CC(OC(=O)CCC(C)(C)O)C1=CCC2C(=CC=C3CC(O)C(C)C(O)C3)CCCC12C [Compound of Example 62, (1R,2α,3R,20S)-19-nor-2-methyl-20-(4-hydroxy-4-methylpentanoyloxy)-9,10-secopregna-5Z,7E,16-triene-1,3-diol]
[1]
  EC50: 0.23 nM
[3]
  Metabolic Rate: 24 pmol/min/mg

## CCC(O)(C=CC(=O)OC(C)C1CCC2C(=CC=C3CC(O)C(C)C(O)C3)CCCC21C)CC [Compound of Example 65, (1R,2α,3R,20S)-2-methyl-19-nor-20-[(2E)-4-ethyl-4-hydroxyhex-2-enoyloxy]-9,10-secopregna-5Z,7E-diene-1,3-diol]
[1]
  EC50: 0.29 nM
[3]
  Metabolic Rate: 29 pmol/min/mg

## CCC(O)(CC)CCC(=O)OC(C)C1CCC2C(=CC=C3CC(O)C(C)C(O)C3)CCCC21C [Compound of Example 67, (1R,2α,3R,20S) -2-methyl-19-nor-20-[4-ethyl-4-hydroxyhexanoyloxy]-9,10-secopregna-5Z,7E-diene-1,3-diol]
[1]
  EC50: 0.15 nM
[3]
  Metabolic Rate: 38 pmol/min/mg

## CC(OC(=O)CCC(C)(O)C(F)(F)F)C1=CCC2C(=CC=C3CC(O)CC(O)C3)CCCC12C [Compound of Example 68, (1R,3R,20S)-19-nor-20-[(4S)-5,5,5-trifluoro-4-hydroxy-4-methylpentanoyloxy]-9,10-secopregna-5Z,7E,16-triene-1,3-diol]
[1]
  EC50: 0.23 nM
[3]
  Metabolic Rate: 126 pmol/min/mg

## C[C@H](OC(=O)CC[C@@](C)(O)C(F)(F)F)C1=CC[C@H]2/C(=C/C=C3C[C@@H](O)C[C@H](O)C3)CCC[C@]12C [Compound of Example 69, (1R,3R,20S)-19-nor-20-[(4R)-5,5,5-trifluoro-4-hydroxy-4-methylpentanoyloxy]-9,10-secopregna-5Z,7E,16-triene-1,3-diol]
[1]
  EC50: 0.77 nM
[3]
  Metabolic Rate: 86 pmol/min/mg

## CC(OC(=O)CCC(C)(O)C(F)(F)F)C1CCC2C(=CC=C3CC(O)CC(O)C3)CCCC21C [Compound of Example 72, (1R,3R,20S)-19-nor-20-[(4S)-5,5,5-trifluoro-4-hydroxy-4-methylpentanoyloxy]-9,10-secopregna-5Z,7E-diene-1,3-diol]
[1]
  EC50: 0.17 nM
[3]
  Metabolic Rate: 111 pmol/min/mg

## CC(OC(=O)CCC(C)(O)C(F)(F)F)C1CCC2C(=CC=C3CC(O)CC(O)C3)CCCC21C [Compound of Example 73, (1R,3R,20S)-19-nor-20-[(4R)-5,5,5-trifluoro-4-hydroxy-4-methylpentanoyloxy]-9,10-secopregna-5Z,7E-diene-1,3-diol]
[1]
  EC50: 1.3 nM
[3]
  Metabolic Rate: 63 pmol/min/mg
